Patent US20130209386A1, “NEW USES” (EVOCUTIS PLC, priority 2010, published 2013)
Where “and” joins values, the source holds several entries; their conditions need not be identical. Equal entries are not always repeated. Where two headings read alike, the source gives them in different places. Marks after values point to notes of the source that are not given here.

Experiments:
C. striatum NCTC 764 = assay: Fixed ratio combination MIC/MBC assays; assay type: cell-based, Corynebacterium striatum
Method: The second test organism used was Corynebacterium striatum NCTC 764. This is a Gram-positive bacterium which is closely related to organisms (aerobic diphtheroids of the genus Corynebacterium) that cause body odour (Guillet et al, Eur J Dermatol, 2000 Jan-Feb, 10(1): 41-2). The C. striatum was cultured and maintained on Mueller-Hinton Medium (agar and broth) at pH 7.3 (±0.1); cultures were incubated aerobically at 37° C. for 18-24 hours.
(§1) (g) Fixed Ratio Combination MIC/MBC Assays
(§2) This method used a sterile 96-well microtitre plate, capable of holding about 200 μl of liquid per well. The wells contained liquid culture medium and ranges of decreasing concentrations of the relevant test compounds alone in doubling dilutions (eg 1000, 500, 250, 125 . . . μg/ml, etc. down to 0.49 μg/ml) or doubling dilutions of a combination of two compounds mixed initially at a fixed concentration ratio (based on molarity in this instance). The culture medium was as described above.
(§3) The wells were inoculated with a liquid suspension of freshly grown micro-organism and incubated under the conditions described above. After incubation, the microtitre plate was examined visually (with the aid of a light box) for cloudiness in each well, which would indicate microbial growth. The MIC value was recorded as the lowest concentration of test compounds alone or concentrations of the mixture of the two test compounds required to inhibit microbial growth, ie the liquid in the well remained clear.
(§4) The assays were conducted in triplicate and included both negative (culture medium with no micro-organisms) and positive (culture medium plus diluting solvent(s) plus micro-organism) controls.
(§5) These samples were then individually sub-cultured on antibiotic-free agar medium, under the incubation conditions described above. Following incubation they were examined visually for microbial growth.
(§6) Thus for each mixture tested, the FIC for compound A (FICA)=MIC for (A+B)/MIC for A alone. Similarly the FIC for compound B (FICB)=MIC for (A+B)/MIC for B alone. The overall FICI=FICA+FICB.
(§7) FBC & FBCI were calculated in the same manner using recorded MBC values.

P. acnes NCTC 737 = assay: Fixed ratio combination MIC/MBC assays; assay type: cell-based, Propionibacterium acnes
Method: as §1, §2, §3, §4, §5, §6, §7

[1] = tested on: Propionibacterium acnes NCTC 737; assay: Minimum biocidal concentration (MBC) assay; assay type: cell-based
Method: (§8) The first test organism used was Propionibacterium acnes NCTC 737. This is a propionibacterial strain and is the type strain of the genus; it is fully susceptible to antibiotics. The propionibacteria are clinically significant due to their involvement in acne. They are also opportunistic pathogens in compromised hosts. Activity observed against these micro-organisms is expected to be a good predictor of activity against acne.
(§9) The propionibacteria were cultured and maintained on Wilkins-Chalgren Anaerobe Medium (agar and broth) at pH 6.0; all cultures were incubated anaerobically at 37° C. for 72 hours.
(b) Minimum Biocidal Concentration (MBC) Assay
This assay, normally carried out after an MIC assay, determines the minimum concentration of a compound that is lethal to the micro-organism being tested.
as §5

[2] = tested on: Propionibacterium acnes NCTC 737; assay: Minimum inhibitory concentration (MIC) assay; assay type: cell-based
Method: as §8, §9
(a) Minimum Inhibitory Concentration (MIC) Assay
This is a standard international method for quantitatively assessing the antimicrobial activity of a compound in a liquid medium. The method used a sterile 96-well microtitre plate, capable of holding about 200 μl of liquid per well. The wells contained liquid culture medium and ranges of decreasing concentrations of the relevant test compound in doubling dilutions (eg 1000, 500, 250, 125 . . . μg/ml, etc, down to 0.49 μg/ml). The culture media were as described above.
The wells were inoculated with a liquid suspension of freshly grown micro-organism and incubated under the conditions described above. After incubation, the microtitre plate was examined visually (with the aid of a light box) for cloudiness in each well, which would indicate microbial growth. The MIC value was recorded as the lowest concentration of test compound required to inhibit microbial growth, ie the lowest concentration for which the liquid in the well remained clear.
The assays included both negative (culture medium with no micro-organisms) and positive (culture medium plus diluting solvent plus micro-organism) controls.

[3] = tested on: Propionibacterium acnes NCTC 737; assay: Disc diffusion assay (DDA) and synergy disc diffusion assay (SDDA); assay type: cell-based
Method: (c) Disc Diffusion Assay (DDA)
This is an internationally recognised standard method for qualitatively assessing the antimicrobial activity of a compound or combination of compounds.
A sterile paper disc was impregnated with a sample of the test compound(s) in a suitable solvent (or applied neat) and 30 minutes allowed for any of the solvents to evaporate (where possible). The disc was then placed on an agar plate onto which the test micro-organism had been inoculated. The plate was then incubated under the conditions described above, following which it was examined visually for signs of microbial growth. […] The diameter of this zone of “inhibition” was measured using a ProtoCOL™ automated zone sizer (Synbiosis, Cambridge, UK).
(d) Synergy Disc Diffusion Assay (SDDA)
This is a variation on the DDA method, in which two compounds are tested together for their combined antimicrobial activity.
Two test compounds A and B were placed on a single paper disc and the above described DDA procedure repeated.
The two compounds were then subjected in combination to the SDDA assay described above.
MIC/MBC experiments were performed in duplicate and (S)DDA experiments in triplicate.
The tropolone was dissolved in ethanol.

[4] = P. acnes NCTC 737, compound alone
[5] = C. striatum NCTC 764, compound alone
[6] = compound alone, 12.5 μg per disc (gluconate, picolinate 25 μg; silicate 12.4 μg; chlorophyllin 200 μg)
[7] = copper salt + tropolone versus the greater single zone
[8] = copper salt combined with tropolone on one disc, 12.5 μg each (exceptions b187)

O=C([O-])CC(O)(CC(=O)[O-])C(=O)[O-].[Bi+3] [Bismuth (III) citrate]
MBC (C. striatum NCTC 764): >67.9** μg/ml | MIC (C. striatum NCTC 764): >67.9** μg/ml | MBC (P. acnes NCTC 737; compound alone): 8.5 µg/mL | MIC (P. acnes NCTC 737; compound alone): 2.1 µg/mL

[Cu+].[I-] [Copper (I) iodide]
MBC [1, 4]: 31.25 µg/mL | MIC/MBC ratio [1, 4]: 0.25 | MBC (C. striatum NCTC 764; [5]): >97.5** μg/ml | MIC (C. striatum NCTC 764; [5]): >97.5** μg/ml | MIC [2, 4]: 7.8 µg/mL | DDA zone of inhibition diameter [3, 6]: 29.66 mm | SDDA area increase [3, 7]: 24.28% | SDDA increase [3, 7]: 3.41 mm | (S)DDA with tropolone [3, 8]: 33.07 mm

CSCC[C@H](NC(C)=O)C(=O)[O-].CSCC[C@H](NC(C)=O)C(=O)[O-].[Cu+2] [Copper (II) acetylmethionate]
MBC [1, 4]: 125 µg/mL | MIC/MBC ratio [1, 4]: 0.06 | MIC [2, 4]: 7.8 µg/mL | DDA zone of inhibition diameter [3, 6]: 10.23 mm | SDDA area increase [3, 7]: 306.27% | SDDA increase [3, 7]: 13.44 mm | (S)DDA with tropolone [3, 8]: 26.67 mm

[Cl][Bi]([Cl])[Cl] [Bismuth (III) chloride]
MBC (P. acnes NCTC 737; compound alone): 27 µg/mL and 40 µg/mL

O.O=C(O)CC(O)(CC(=O)O)C(=O)O.[Ag].[Ag].[Ag] [Silver (I) citrate hydrate]
MBC (C. striatum NCTC 764; [5]): 11.3 µg/mL | MIC (C. striatum NCTC 764; [5]): 2.83 µg/mL

CC(=O)c1c([O-])c(C)c([O-])c2c1OC1=CC(=O)C(C(C)=O)C(=O)C12C.[Cu+2] (centres unmarked) [Copper (II) usnate]
MBC [1, 4]: 1.95 µg/mL | MIC/MBC ratio [1, 4]: 0.125 | MBC (C. striatum NCTC 764; [5]): 6 µg/mL | MIC (C. striatum NCTC 764; [5]): 3 µg/mL | MIC [2, 4]: 0.25 µg/mL | DDA zone of inhibition diameter [3, 6]: 38.35 mm | SDDA area increase [3, 7]: 22.13% | SDDA increase [3, 7]: 4.03 mm | (S)DDA with tropolone [3, 8]: 42.38 mm

Copper (II) salicylate
MBC [1]: 31.25 µg/mL | MIC/MBC ratio [1]: 0.25 | MBC (C. striatum NCTC 764): >86** μg/ml | MIC (C. striatum NCTC 764): >86** μg/ml | MIC [2]: 7.8 µg/mL | (S)DDA with tropolone [3]: 32.87 mm | DDA zone of inhibition diameter [3]: 28.32 mm | SDDA area increase [3]: 34.70% | SDDA increase [3]: 4.55 mm

Copper (II) carbonate basic
MBC [1, 4]: 31.25 µg/mL | MIC/MBC ratio [1, 4]: 0.25 | MBC (C. striatum NCTC 764; [5]): >28.3** μg/ml | MIC (C. striatum NCTC 764; [5]): >28.3** μg/ml | MIC [2, 4]: 7.8 µg/mL | DDA zone of inhibition diameter [3, 6]: 9.10 mm | SDDA area increase [3, 7]: 102.17% | SDDA increase [3, 7]: 5.58 mm | (S)DDA with tropolone [3, 8]: 18.81 mm

Copper (II) picolinate
MBC [1, 4]: 62.5 µg/mL | MIC/MBC ratio [1, 4]: 1 | MBC (C. striatum NCTC 764; [5]): >78.8** μg/ml | MIC (C. striatum NCTC 764; [5]): >78.8** μg/ml | MIC [2, 4]: 62.5 µg/mL | DDA zone of inhibition diameter [3, 6]: 35.25 mm | SDDA area increase [3, 7]: −14.13% | SDDA increase [3, 7]: −2.58 mm | (S)DDA with tropolone [3, 8]: 32.66 mm

Copper (II) gluconate
MBC [1, 4]: 125 µg/mL | MIC/MBC ratio [1, 4]: 0.5 | MBC (C. striatum NCTC 764; [5]): >116** μg/ml | MIC (C. striatum NCTC 764; [5]): >116** μg/ml | MIC [2, 4]: 62.5 µg/mL | DDA zone of inhibition diameter [3, 6]: 26.25 mm | SDDA area increase [3, 7]: 40.43% | SDDA increase [3, 7]: 4.86 mm | (S)DDA with tropolone [3, 8]: 31.11 mm

Copper (II) citrate dihydrate
MBC [1]: 31.25 µg/mL | MIC/MBC ratio [1]: 0.06 | MBC (C. striatum NCTC 764): >45** μg/ml | MIC (C. striatum NCTC 764): >45** μg/ml | MIC [2]: 1.95 µg/mL | (S)DDA with tropolone [3]: 32.45 mm | DDA zone of inhibition diameter [3]: 32.04 mm | SDDA area increase [3]: 2.60% | SDDA increase [3]: 0.41 mm

Bismuth (III) subnitrate
MBC (C. striatum NCTC 764; [5]): >249.4** μg/ml | MIC (C. striatum NCTC 764; [5]): >249.4** μg/ml | MBC (P. acnes NCTC 737; compound alone): 15.6 µg/mL | MIC (P. acnes NCTC 737; compound alone): 3.9 µg/mL

Copper (II) silicate
MBC [1, 4]: 38.75 µg/mL | MIC/MBC ratio [1, 4]: 0.125 | MBC (C. striatum NCTC 764; [5]): >35.7** μg/ml | MIC (C. striatum NCTC 764; [5]): >35.7** μg/ml | MIC [2, 4]: 4.84 µg/mL | DDA zone of inhibition diameter [3, 6]: 33.80 mm | SDDA area increase [3, 7]: 3.08% | SDDA increase [3, 7]: 0.52 mm | (S)DDA with tropolone [3, 8]: 34.32 mm

CC(C)c1cccc(=O)c(O)c1 [Hinokitiol, 2-hydroxy-4-isopropyl-2,4,6-cycloheptatrien-1-one]
MBC (P. acnes NCTC 737; Cutibacterium acnes, NCTC737, compound alone, read-out: MBC): 62.5 µg/mL | MIC (P. acnes NCTC 737; Cutibacterium acnes, NCTC737, compound alone, read-out: MIC): 31.2 µg/mL

CC(=O)[O-].CC(=O)[O-].CC(=O)[O-].[Bi+3] [Bismuth (III) acetate]
MBC (P. acnes NCTC 737; compound alone): >46.4** μg/ml | MIC (P. acnes NCTC 737; compound alone): 11.6 µg/mL

NCC(=O)[O-].NCC(=O)[O-].[Cu+2] [Copper (II) glycinate]
MBC (C. striatum NCTC 764): >54.2** μg/ml | MIC (C. striatum NCTC 764): >54.2** μg/ml

O=C([O-])CN(CCN(CC(=O)[O-])CC(=O)[O-])CC(=O)[O-].[Cu+2].[Na+].[Na+] [EDTA copper (II) disodium salt]
MBC [1, 4]: >250 µg/mL | MIC/MBC ratio [1, 4]: <0.03 | MIC [2, 4]: 7.8 µg/mL | DDA zone of inhibition diameter [3, 6]: 10.03 mm | SDDA area increase [3, 7]: 328.62% | SDDA increase [3, 7]: 14.16 mm | (S)DDA with tropolone [3, 8]: 27.39 mm

O=C(O)c1cc(O)c2c(c1)[O][Bi]([OH])[O]2 [Bismuth (III) subgallate]
MBC (C. striatum NCTC 764; [5]): >67.2** μg/ml | MIC (C. striatum NCTC 764; [5]): >67.2** μg/ml | MBC (P. acnes NCTC 737; compound alone): >67.2** μg/ml | MIC (P. acnes NCTC 737; compound alone): >67.2** μg/ml
